Results published in US20110178072A1, “STEREOSPECIFICITY OF METHYLSULFINYL REDUCTION” (priority 2008, published 2011).

Columns and labels:
mouse MsrA = molecular target: T1, mouse MsrA (Mus musculus, UniProt Q9D6Y7); experiment: Reduction of methylsulfinyl compounds by mouse MsrA (HPLC/GC analysis); format: biochemical
T1 sequence (Q9D6Y7 21-233): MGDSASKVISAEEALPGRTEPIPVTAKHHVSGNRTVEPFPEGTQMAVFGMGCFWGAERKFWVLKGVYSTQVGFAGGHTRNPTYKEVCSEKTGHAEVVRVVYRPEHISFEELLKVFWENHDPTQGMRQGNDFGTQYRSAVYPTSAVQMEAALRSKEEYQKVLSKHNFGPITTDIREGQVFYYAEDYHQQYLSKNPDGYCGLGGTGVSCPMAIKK
Protocol: (§1) The isothiocyanate group in R,S-sulforaphane reacts with sulfhydryls to form conjugated compounds. First, the compound was treated with excess DTT (which has two free sulfhydryl groups) to conjugate the isothiocyanate group of R,S-sulforaphane or S-sulforaphane with the sulfhydryl group of DTT and the resulting adducts were then used as substrates for mouse MsrA and mouse MsrB2. The reduction of the DTT-sulforaphane adduct was analyzed using HPLC analysis of the adduct with buffer (as control; FIG. 12A), mouse MsrB2 (FIG. 12B), and mouse MsrA (FIG. 12C). The arrows indicate the migration of the DTT-erucin adduct. […] FIG. 13 illustrates the HPLC analysis of the DTT-R-sulforaphane adduct incubated with buffer (as control) (FIG. 13A), mouse MsrA (FIG. 13B), and mouse MsrB2 (FIG. 13C). Again, the arrows show the migration of the DTT-erucin adduct.
(§2) Mesoridazine, which has a mild effect on treating schizophrenia, was examined to determine its reduction by yeast fRMsr, mouse MsrB2, and mouse MsrA (FIG. 14). The peak of m/z 387.6 corresponds to the molecular weight of mesoridazine and the peak of m/z 371.6 corresponds to the molecular weight of thioridazine. FIG. 14B details the HPLC analysis of mesoridazine incubated with mouse MsrB2 and DTT. FIG. 14C provides the HPLC analysis of mesoridazine incubated with yeast fRMsr and DTT. FIG. 14D illustrates the specific activities of various Msrs for the reduction of mesoridazine (left to right): mouse MsrA in the presence of DTT as a reductant, mouse MsrA in the presence of the thioredoxin reducing system, mouse MsrB2 in the presence of DTT, and yeast fRMsr in the presence of DTT.
(§3) The reduction of triclabendazole sulfoxide was examined. This compound has been used to treat liver fluke, Fasciola hepatica and Fasciola gigantica, in sheep, goat, and cattle as a form of triclabendazole. Triclabendazole can be metabolized to several different forms including triclabendazole sulfoxide, which is an oxidized form of methylsulfide group, in biological systems. FIG. 15A provides an HPLC analysis of triclabendazole sulfoxide incubated with mouse MsrA and DTT. The peak of m/z 375.2 and 377.2 correspond to the molecular weight of triclabendazole sulfoxide and the peak of m/z 359.2 and 361.2 correspond to the molecular weight of triclabendazole. FIG. 15B illustrates an HPLC analysis of triclabendazole sulfoxide incubated with mouse MsrB2 and DTT. FIG. 15C details an HPLC analysis of triclabendazole sulfoxide incubated with yeast fRMsr and DTT. FIG. 15D illustrates the specific activities of various Msrs for the reduction of triclabendazole sulfoxide (left to right): mouse MsrA in the presence of DTT as a reductant, mouse MsrA in the presence of the thioredoxin reducing system, mouse MsrB2 in the presence of DTT, and yeast fRMsr in the presence of DTT.
(§4) Another methylsulfinyl-containing drug, sulmazole, was tested as a substrate for Msrs. This drug is pharmacologically active as a cardiotonic agent and is a phosphodiesterase inhibitor. FIG. 16A details an HPLC analysis of sulmazole incubated with mouse MsrA and DTT. The peak of m/z 288.3 corresponds to the molecular weight of sulmazole and the peak of m/z 272.3 corresponds to the molecular weight of reduced form of sulmazole. FIG. 16B illustrates an HPLC analysis of sulmazole incubated with mouse MsrB2 and DTT. FIG. 16C provides an HPLC analysis of sulmazole incubated with yeast fRMsr and DTT. FIG. 16D details the specific activities of various Msrs for the reduction of sulmazole (left to right): mouse MsrA in the presence of DTT as a reductant, mouse MsrA in the presence of the thioredoxin reducing system, mouse MsrB2 in the presence of DTT, and yeast fRMsr in the presence of DTT.
DMSO, which is used as a preservative for stem cells, solvent for drugs, and a drug itself with anti-inflammatory and free radical scavenging properties, was studied for its reduction by Msrs. FIG. 17A details a GC analysis of DMSO incubated with mouse MsrA and DTT. […]

mouse MsrB2 = mouse MsrB2 (Mus musculus, UniProt Q78J03); experiment: Reduction of methylsulfinyl compounds by mouse MsrB2 (HPLC/GC analysis); format: biochemical; conditions: in the presence of DTT
Chain of mouse MsrB2 (Q78J03 43-175): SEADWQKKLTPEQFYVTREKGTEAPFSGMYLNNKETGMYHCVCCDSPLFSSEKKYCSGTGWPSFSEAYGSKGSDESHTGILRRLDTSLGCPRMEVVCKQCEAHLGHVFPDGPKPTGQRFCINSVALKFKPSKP
Protocol: as §1, §2, §3
as §4, with “FIG. 16D details the specific activities of various Msrs for the reduction of sulmazole (left to right): mouse MsrA in the presence of DTT as a reductant, mouse MsrA in the presence of the thioredoxin reducing system, mouse MsrB2 in the presence of DTT, and yeast fRMsr in the presence of DTT.” left out

yeast fRMsr = molecular target: T2, yeast fRMsr (Saccharomyces cerevisiae, UniProt P36088); experiment: Reduction of methylsulfinyl drugs by yeast fRMsr (HPLC analysis); format: biochemical; conditions: in the presence of DTT
T2 construct: His-tag (C); made in house; host or cells: E. coli BL21 (DE3), pET21b
T2 sequence (P36088 1-180): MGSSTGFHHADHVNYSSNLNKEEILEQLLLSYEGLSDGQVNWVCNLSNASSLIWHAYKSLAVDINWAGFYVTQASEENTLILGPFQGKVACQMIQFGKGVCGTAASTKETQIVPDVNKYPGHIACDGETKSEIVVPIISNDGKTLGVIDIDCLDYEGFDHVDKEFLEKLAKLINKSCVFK
Protocol: as §2
The reduction of triclabendazole sulfoxide was examined. This compound has been used to treat liver fluke, Fasciola hepatica and Fasciola gigantica, in sheep, goat, and cattle as a form of triclabendazole. Triclabendazole can be metabolized to several different forms including triclabendazole sulfoxide, which is an oxidized form of methylsulfide group, in biological systems. FIG. 15A provides an HPLC analysis of triclabendazole sulfoxide incubated with mouse MsrA and DTT. […]

SK-Hep1 cells = experiment: Growth of SK-Hep1 cells in media supplemented or not with sodium selenite; format: cell-based, human; conditions: 100 nM; FBS-supplemented and insulin/transferrin media
Protocol: Growth of SK-Hep1 cells was analyzed in modified DMEM media containing Met, Met-SO, Met-RO, or Met-RSO (0.1 mM of each amino acid) or with no addition of these compounds. In addition, media were supplemented or not with 100 nM sodium selenite. Cells were analyzed at 0, 24, 48, and 72 hours. Another experiment involving SK-Hep1 cells was performed with cells grown in serum-free modified DMEM medium, containing insulin (5 μg/mL) and transferrin (10 μg/mL), Met or Met-RSO (0.1 mM of each amino acid) and 100 nM sodium selenite (or with no addition of this compound), and separately in 10% dialyzed FBS-containing DMEM medium containing 0.1 mM Met with 100 nM sodium selenite (or not). Cells were analyzed at 0, 24, 48, and 72 hours. Cell growth assays were carried out as described below.
Proliferation Assay—Cell growth was quantified using colorimetric MTS assay (Promega). Cells in regular DMEM medium were plated in 96-well plates at 5×10^3 cells/well, washed with PBS, and specialized DMEM media were added that contained Met, Met-SO, Met-RO, or Met-RSO 24 hours after plating. […] After 90 minutes of incubation at 37° C. in the atmosphere of 5% CO2, cell proliferation was measured at indicated time periods from 0 to 96 hours at 450 nm in a plate reader. […]

mouse MsrB1-Cys = molecular target: T3, mouse MsrB1-Cys (Mus musculus, UniProt Q9JLC3, U95C); experiment: Reduction of DMSO by mouse MsrB1-Cys (GC analysis); format: biochemical; conditions: in the presence of DTT; selenocysteine replaced with cysteine
T3 sequence (Q9JLC3 1-116 U95C): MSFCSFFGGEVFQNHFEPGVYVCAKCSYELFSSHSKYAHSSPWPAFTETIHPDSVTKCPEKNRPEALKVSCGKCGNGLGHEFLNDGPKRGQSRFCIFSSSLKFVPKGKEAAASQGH
Protocol: DMSO, which is used as a preservative for stem cells, solvent for drugs, and a drug itself with anti-inflammatory and free radical scavenging properties, was studied for its reduction by Msrs. FIG. 17A details a GC analysis of DMSO incubated with mouse MsrA and DTT. FIG. 17B provides a GC analysis of DMSO incubated with mouse MsrB2 and DTT. FIG. 17C illustrates a GC analysis of DMSO incubated with mouse MsrB1-Cys and DTT. FIG. 17D provides specific activities of various Msrs for the reduction of DMSO (left to right): mouse MsrA in the presence of DTT as a reductant, mouse MsrB2 in the presence of DTT, and mouse MsrB1-Cys in the presence of DTT.

[1] = thioredoxin system as reductant

Compound	Reduction by mouse MsrA (mouse MsrA; DTT as a reductant)	Reduction by mouse MsrA (mouse MsrA; [1])	Reduction by mouse MsrB2 (mouse MsrB2)	Reduction by yeast fRMsr (yeast fRMsr)	Influence on cell growth on Met and Met sulfoxide (SK-Hep1 cells)	Reduction by mouse MsrB1-Cys (mouse MsrB1-Cys)
CN1CCCCC1CCN1c2ccccc2Sc2ccc([S+](C)[O-])cc21 (stereo not drawn) [Mesoridazine]	reduced to thioridazine	reduced to thioridazine	no activity was observed	no activity was observed		
O=[Se]([O-])[O-].[Na+].[Na+] [sodium selenite]					did not influence cell growth	
COc1cc([S+](C)[O-])ccc1-c1nc2ncccc2[nH]1 (stereo not drawn) [sulmazole, Sulmazole]	specifically reduced	specifically reduced	not reduced	not reduced		
Dimethylsulfoxide [DMSO]	can be reduced		very inefficient substrate			very inefficient substrate
